≈ marks a conversion by molar mass, not a printed value.
System: Propionibacterium acnes- antibiotic-resistant clinical isolate
Conditions: P. acnes antibiotic-resistant

CCCCCCNC(=O)[C@H](CCCNC(=N)N)NC(=O)[C@H](Cc1c(C(C)(C)C)[nH]c2c(C(C)(C)C)cc(C(C)(C)C)cc12)NC(=O)[C@@H](N)CCCNC(=N)N [Compound 8]
MIC: 2 µg/mL (≈ 2.6 µM)

Reference: patent US20240277890A1, “ANTIMICROBIAL ARTICLES COMPRISING POLYURETHANE” (Amicoat AS, priority 2021, published 2024)
